The source of these data is US20210046071A1, “TETRACYCLIC COMPOUNDS AND THEIR SALTS, COMPOSITIONS, AND METHODS FOR THEIR USE” (Senhwa Biosciences, Inc., priority 2019, published 2021).

Molecules are shown by their SMILES.

One may read the EC50 as the concentration giving half of the maximal effect.

What all share (assay type): cell-based
One assay has as its system BJ-hTERT. In words: Alamar Blue cell viability assay, BJ-hTERT. Particulars: Normal. Here is the method:
(§1) The effect of Compound I on cell viability was assessed by Alamar Blue assay of metabolic activity in various cancer cell lines.
For orientation: Alamar Blue is a resazurin reagent that responds to reducing activity.

For a further assay, the system named is BRCA12 deficient cells. In words: Toxicity against BRCA12 deficient cells. As to conditions: cell lines of different genetic backgrounds (colon, breast and ovary), mouse and human.
Another assay relates to Jurkat. In words: Alamar Blue cell viability assay, Jurkat. Particulars: Homo sapiens, Leukemia. Here is the method:
as §1

A further assay concerns A375. As to the kind of experiment: Alamar Blue cell viability assay, A375. As to conditions: Homo sapiens, A-375; A375, Melanoma. How it is done:
as §1

Assay [1] deals with multiple cancer cell lines. As to the kind of experiment: Alamar Blue cell viability assay, multiple cancer cell lines. As to conditions: Table 1. How it is done:
as §1

The test system of a further assay is SR. In words: Alamar Blue cell viability assay, SR. As to conditions: Homo sapiens, Leukemia. Here is the method:
as §1

The test system of a further assay is THP-1. In words: Alamar Blue cell viability assay, THP-1. Particulars: Homo sapiens; THP-1, Leukemia. Here is the method: as §1
For a further assay, the system named is SK-OV-3. In words: Alamar Blue cell viability assay, SK-OV-3. Particulars: Homo sapiens; SK-OV-3, Ovarian. How it is done: as §1

`Cc1cnc(CNC(=O)c2c(=O)c3ccc(N4CCCN(C)CC4)nc3n3c2sc2ccccc23)cn1` [Compound I, 2-(4-Methyl-[1,4]diazepan-1-yl)-5-oxo-5H-7-thia-1,11b-diaza-benzo[c]fluorene-6-carboxylic acid (5-methyl-pyrazin-2-ylmethyl)-amide]: the EC50 in the assay with BJ-hTERT was 5.17 µM; with Jurkat, 64 nM; in the assay with A375 it was 58 nM; with SR it was 5 nM; with THP-1, 47 nM; with SK-OV-3 it was 78 nM. Also, the “Toxicity against BRCA12 deficient cells” value in the assay on BRCA12 deficient cells is reported as “specific toxicity”. Also, in assay [1], the Antiproliferative activity result is “broad spectrum antiproliferative activity”.
